Test results as given in PMC5298231, “The Malaria Parasite's Lactate Transporter PfFNT Is the Target of Antiplasmodial Compounds Identified in Whole Cell Phenotypic Screens” (PLoS Pathogens, 2017).
Like-named read-outs stand apart in the source and are kept apart here. Peptide text beside a SMILES is read from it.

System: erythrocytes infected with 3D7 trophozoites
Type: cell-based, Plasmodium falciparum

Structure (SMILES) | Ratio of metabolite abundance, Exp1_1hr (sheet Ratio, Exp1, 1hr) | Ratio of metabolite abundance, Exp1_3hr (sheet Ratio, Exp1, 3hr) | Ratio of metabolite abundance, Exp1_6hr (sheet Ratio, Exp1, 6hr) | Ratio of metabolite abundance, Exp2_1hr (sheet Ratio, Exp2, 1hr) | Ratio of metabolite abundance, Exp2_3hr (sheet Ratio, Exp2, 3hr) | Ratio of metabolite abundance, Exp2_6hr (sheet Ratio, Exp2, 6hr) | Ratio of metabolite abundance, Exp3_1hr (sheet Ratio, Exp3, 1hr) | Ratio of metabolite abundance, Exp3_3hr (sheet Ratio, Exp3, 3hr) | Ratio of metabolite abundance, Exp3_6hr (sheet Ratio, Exp3, 6hr) | other results
O=C(O)[C@H](Cc1ccccc1)NC(=O)[C@H](Cc1cnc[nH]1)NC(=O)[C@@H]1CCCN1 [PHF] (H-Pro-His-Phe-OH) | 1.822 | 0.7039 | 1.872 | 2.081 | 1.353 | 2.7014 | 2.437 | 1.168 | 1.525 | –
CC(C)[C@H](NC(=O)[C@@H]1CCCN1C(=O)[C@@H]1CCCN1)C(=O)N[C@@H](CCC(N)=O)C(=O)O [PPVQ] (H-PPVQ-OH) | 1.0595 | 0.6401 | 0.763 | 1.014 | 0.8051 | 0.8204 | 0.973 | 0.9388 | 0.9472 | –
CC(C)[C@H](NC(=O)[C@@H]1CCCN1)C(=O)N[C@@H](CC(N)=O)C(=O)N[C@@H](Cc1ccccc1)C(=O)O [PVNF] (H-PVNF-OH) | 0.6556 | 0.3908 | 1.343 | 0.8248 | 0.5795 | 1.295 | 0.9151 | 0.7449 | 2.085 | –
CC(C)[C@H](NC(=O)[C@@H]1CCCN1)C(=O)N[C@@H](CCC(N)=O)C(=O)N[C@@H](C)C(=O)O [PVQA] (H-PVQA-OH) | 0.5661 | 0.3168 | 0.8691 | 0.7152 | 0.5356 | 0.8856 | 0.5318 | 0.3152 | 1.03 | –
CC(C)[C@H](NC(=O)[C@@H]1CCCN1)C(=O)N[C@@H](CCC(N)=O)C(=O)O [PVQ] (H-Pro-Val-Gln-OH) | 1.621 | 0.8912 | 2.731 | 1.963 | 1.4303 | 3.535 | 1.9381 | 1.515 | 2.354 | –
O=C(O)C1CCCCN1 (stereo not drawn) [Pipecolate] | 1.3778 | 1.045 | 1.52 | 1.38 | 1.052 | 2.481 | 1.352 | 1.13 | 2.281 | –
O=C[C@H](O)[C@H](O)[C@H](O)COP(=O)(O)O [Ribose-5-phosphate] | 2.775 | 3.2124 | 2.288 | 1.429 | 1.2203 | 1.178 | 1.678 | 1.594 | 1.155 | –
Nc1ncnc2c1ncn2[C@@H]1O[C@H](CSCC[C@H](N)C(=O)O)[C@@H](O)[C@H]1O [S-Adenosyl-L-homocysteine] | 0.9683 | 0.7021 | 0.8395 | 0.9429 | 0.8753 | 1.175 | 0.839 | 0.8468 | 0.8042 | –
CC(C)C[C@H](NC(=O)CNC(=O)[C@H](CC(=O)O)NC(=O)[C@@H](N)CO)C(=O)N[C@@H](C)C(=O)O [SDGLA] (H-SDGLA-OH) | 0.8703 | 0.6348 | 0.4701 | 0.9687 | 0.9448 | 0.8041 | 0.872 | 0.7497 | 0.5099 | –
N[C@@H](CO)C(=O)N[C@@H](Cc1ccccc1)C(=O)NCC(=O)N[C@@H](CC(=O)O)C(=O)O [SFGD] (H-SFGD-OH) | 0.9984 | 0.657 | 0.8343 | 0.9574 | 0.8881 | 0.8874 | 0.972 | 0.9269 | 0.9926 | –
O=C(COP(=O)(O)O)[C@@H](O)[C@H](O)[C@H](O)[C@H](O)COP(=O)(O)O [Sedoheptoluse bisphosphate] | 2.263 | 0.7031 | 0.6514 | 1.522 | 1.277 | 0.7611 | 1.031 | 0.8186 | 0.6336 | –
O=CCCC(=O)O [Succinate semialdehyde] | 0.6229 | 0.6245 | 0.614 | 0.9462 | 0.5836 | 0.7757 | 0.7696 | 0.6244 | 0.8444 | –
O=C(O)CCC(=O)O [Succinate] | – | – | – | – | – | – | – | – | – | Log2 Exp1_1hr: 0.7494; Log2 Exp1_3hr: -0.1278; Log2 Exp1_6hr: -0.06195; Log2 Exp2_1hr: 0.5818; Log2 Exp2_3hr: -0.0254; Log2 Exp2_6hr: 0.5995; Log2 Exp3_1hr: 0.1613; Log2 Exp3_3hr: -0.5854; Log2 Exp3_6hr: 0.007182; Ratio of metabolite abundance, Exp1_1hr: 1.681; Ratio of metabolite abundance, Exp1_3hr: 0.9152; Ratio of metabolite abundance, Exp1_6hr: 0.958; Ratio of metabolite abundance, Exp2_1hr: 1.497; Ratio of metabolite abundance, Exp2_3hr: 0.9825; Ratio of metabolite abundance, Exp2_6hr: 1.515; Ratio of metabolite abundance, Exp3_1hr: 1.118; Ratio of metabolite abundance, Exp3_3hr: 0.6665; Ratio of metabolite abundance, Exp3_6hr: 1.005
CC(C)[C@H](NC(=O)[C@H](CC(N)=O)NC(=O)[C@@H](N)[C@@H](C)O)C(=O)N[C@@H](CCCCN)C(=O)O [TNVK] (H-TNVK-OH) | 0.4459 | 0.2171 | 0.7349 | 0.5855 | 0.3584 | 0.8812 | 0.5059 | 0.3409 | 1.2 | –
CC(=O)N[C@H]1[C@@H](OP(=O)(O)OP(=O)(O)OC[C@H]2O[C@@H](n3ccc(=O)[nH]c3=O)[C@H](O)[C@@H]2O)O[C@H](CO)[C@@H](O)[C@@H]1O [UDP-N-acetyl-D-glucosamine] | 1.076 | 0.9078 | 0.813 | 0.9909 | 1.08 | 0.8625 | 1.118 | 1.138 | 0.9727 | –
O=c1ccn([C@@H]2O[C@H](COP(=O)(O)OP(=O)(O)O)[C@@H](O)[C@H]2O)c(=O)[nH]1 [UDP] | 0.7834 | 0.4305 | 0.5124 | 1.213 | 0.7051 | 0.7343 | 0.7602 | 0.7434 | 0.9366 | –
O=c1ccn([C@@H]2O[C@H](COP(=O)(O)O)[C@@H](O)[C@H]2O)c(=O)[nH]1 [UMP] | 0.9634 | 0.9303 | 0.812 | 0.4945 | 0.6514 | 1.0366 | 0.9925 | 0.9562 | 0.9948 | –
CC(C)[C@H](N)C(=O)N[C@@H](CC(=O)O)C(=O)O [VD] | 1.809 | 1.252 | 2.887 | 2.091 | 1.368 | 1.996 | 11.5926 | 5.435 | 7.8446 | –
Nc1ncnc2c1ncn2[C@H]1C[C@H](O)[C@@H](COP(=O)(O)OP(=O)(O)O)O1 [dADP] | 0.4339 | 0.1672 | 0.2747 | 1.0009 | 0.9609 | 1.167 | 1.173 | 0.5208 | 1.268 | –
